This note sets out measurements from the supplement of paper PMC4858399.

The test system of experiment [1] is Caenorhabditis elegans N2. Kind of experiment: lowest effective concentration for larval growth inhibition (size below effect threshold); higher = less potent. The note with it: exposure time 48 h. The method, boiled down:
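Log-transformed well means of per-worm extinction, read as size on a Biosort, came from 50 C. elegans N2 L1 larvae per 96-well grown 48 h at 20°C in K-medium with killed bacteria, 1% DMSO and 0.5 to 200 µM chemical. The lowest effective concentration is the first dose at which the plate-adjusted mean size is below the threshold and stays below it at every higher dose. The threshold is 5.665.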

For experiment [2], the system named is Caenorhabditis elegans N2. Briefly: mean nematode size ln(EXT) after 48 h, plate-adjusted (DMSO control set to 6) (ln(EXT), control-adjusted); higher = larger nematodes / less growth inhibition. The note with it: exposure time 48 h. The method, boiled down:
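Synchronised C. elegans N2 L1 larvae were grown for 48 h at 20°C in K-medium containing killed OP50, 1% DMSO and 0.5–200 µM chemical, at 50 per well and 4–6 wells per treatment. The Biosort recorded extinction for each worm, and a growth model removed debris. Worm size was obtained by natural-logging these values and averaging them per well. For plate adjustment, the vehicle control mean was subtracted and 6 was added.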

In the case of `CC(=O)C(C)=CC1C(C)=CCCC1(C)C` (stereo not given), in experiment [1], the lowest effective concentration is above 200 µM. The “mean nematode size ln(EXT) (ln)” value came to 5.84 in experiment [2] (0.5 µM); 5.8 in experiment [2] (1 µM); 5.9 in experiment [2] (5 µM); 5.86 in experiment [2] (10 µM); 5.84 in experiment [2] (50 µM); 5.93 in experiment [2] (100 µM). Also, in experiment [2] (200 µM), the “mean nematode size ln(EXT) (ln)” value amounted to 5.79.

As to `CC(C)(O)c1ccc(CNC(=O)c2cccnc2Oc2ccc(F)cc2)cc1`, the lowest effective concentration in experiment [1] was above 200 µM. Besides, the “mean nematode size ln(EXT) (ln)” value in experiment [2] (0.5 µM) was found to be 5.74; in experiment [2] (1 µM) it was 6.01; in experiment [2] (5 µM) it was 5.84; in experiment [2] (10 µM), 5.9; in experiment [2] (50 µM), 5.91; in experiment [2] (100 µM) it was 5.9. The “mean nematode size ln(EXT) (ln)” value in experiment [2] (200 µM) worked out at 5.72.

`CC(C)(O)c1ccc(CNC(=O)c2cccnc2Oc2ccc3nonc3c2)cc1` gave a lowest effective concentration in experiment [1] above 200 µM. Besides, the “mean nematode size ln(EXT) (ln)” value in experiment [2] (0.5 µM) worked out at 5.94; in experiment [2] (1 µM), 5.81; in experiment [2] (5 µM), 5.9; in experiment [2] (10 µM), 5.71; in experiment [2] (50 µM), 5.92; in experiment [2] (100 µM), 5.81. The “mean nematode size ln(EXT) (ln)” value in experiment [2] (200 µM) turned out to be 5.8.

The molecule `CC(C)c1cccc(C(C)C)c1NC(=O)NS(=O)(=O)c1cc(C(C)(C)O)co1` gave a lowest effective concentration in experiment [1] above 200 µM. In addition, the “mean nematode size ln(EXT) (ln)” value in experiment [2] (0.5 µM) was determined as 5.93; in experiment [2] (1 µM) it was 5.86; in experiment [2] (5 µM), 5.97; in experiment [2] (10 µM), 5.91; in experiment [2] (50 µM) it was 6; in experiment [2] (100 µM), 5.8. In experiment [2] (200 µM), the “mean nematode size ln(EXT) (ln)” value is 5.79.

As to `CCCCc1ccc2c(n1)[C@@H](c1ccc(OC)cc1C[C@H](C)C(=O)O)[C@H](C(=O)O)[C@H]2c1ccc2c(c1)OCO2`, the lowest effective concentration in experiment [1] was above 200 µM. Also, the “mean nematode size ln(EXT) (ln)” value in experiment [2] (0.5 µM) stood at 5.82; in experiment [2] (1 µM) it was 5.87; in experiment [2] (5 µM), 5.83; in experiment [2] (10 µM), 6.32; in experiment [2] (50 µM), 5.91; in experiment [2] (100 µM), 5.95. The “mean nematode size ln(EXT) (ln)” value in experiment [2] (200 µM) came to 5.88.

On to `CCCOc1ccc(S(=O)(=O)N2CCN(CC)CC2)cc1-c1nc2c(CC)n(Cc3ccccn3)nc2c(=O)[nH]1`, for which the lowest effective concentration in experiment [1] was above 200 µM. For the same molecule, the “mean nematode size ln(EXT) (ln)” value came to 5.7 in experiment [2] (0.5 µM); 6.03 in experiment [2] (1 µM); 5.83 in experiment [2] (5 µM); 5.88 in experiment [2] (10 µM); 5.91 in experiment [2] (50 µM); 5.88 in experiment [2] (100 µM). Moreover, the “mean nematode size ln(EXT) (ln)” value in experiment [2] (200 µM) came out at 5.69.

Turning to `CCN(C(=O)c1cc(C)cc(OC[C@H](C)Nc2ccncc2)c1)C(C)C`, the lowest effective concentration in experiment [1] is above 200 µM. Further, the “mean nematode size ln(EXT) (ln)” value in experiment [2] (0.5 µM) amounted to 5.67; in experiment [2] (1 µM) it was 5.78; in experiment [2] (5 µM), 5.59; in experiment [2] (10 µM), 5.63; in experiment [2] (50 µM) it was 5.56; in experiment [2] (100 µM), 5.61. For the same molecule, the “mean nematode size ln(EXT) (ln)” value in experiment [2] (200 µM) was 5.82.

Molecule `CCn1nc(C)c2c1C(=O)NCC(c1ccc(O)cc1)=N2` yielded a lowest effective concentration in experiment [1] above 200 µM. The “mean nematode size ln(EXT) (ln)” value in experiment [2] (0.5 µM) is 5.87; in experiment [2] (1 µM), 5.81; in experiment [2] (5 µM), 5.85; in experiment [2] (10 µM), 5.89; in experiment [2] (50 µM) it was 5.87; in experiment [2] (100 µM), 5.9. In addition, in experiment [2] (200 µM), the “mean nematode size ln(EXT) (ln)” value came to 5.71.

As to `CCn1nc(Cc2ccccc2)cc1C1CCN(C[C@H]2C[C@H](N(C)[C@@H](C(=O)O)C(C)C)C[C@@H]2c2cccc(F)c2)CC1`, in experiment [1], the lowest effective concentration was above 200 µM. The “mean nematode size ln(EXT) (ln)” value in experiment [2] (0.5 µM) came to 5.93; in experiment [2] (1 µM), 5.9; in experiment [2] (5 µM), 5.91; in experiment [2] (10 µM), 5.93; in experiment [2] (50 µM) it was 5.92; in experiment [2] (100 µM), 5.83. The “mean nematode size ln(EXT) (ln)” value in experiment [2] (200 µM) amounted to 5.73.

Consider `CN(C)C(=O)NC1(c2ccccc2)CCN(CC[C@@]2(c3ccc(F)c(F)c3)CN(C(=O)c3ccccc3)CCO2)CC1`, for which the lowest effective concentration in experiment [1] was above 200 µM. Besides, the “mean nematode size ln(EXT) (ln)” value in experiment [2] (0.5 µM) is 5.89; in experiment [2] (1 µM), 5.86; in experiment [2] (5 µM) it was 5.86; in experiment [2] (10 µM) it was 5.8; in experiment [2] (50 µM) it was 5.9; in experiment [2] (100 µM) it was 5.92. The “mean nematode size ln(EXT) (ln)” value in experiment [2] (200 µM) is 5.68.
